Source: patent publication US9757385B2, “Method of treating leukemia using pharmaceutical formulation containing thienotriazolodiazepine compounds” (ONCOETHIX GmbH, priority 2013, dated 2017)
pIC50, pKi: −log10 of the molar value. Counter-ions that a name gives are not always drawn.

What was measured:
HDAC = settings: cited from earlier work
HDAC3 = HDAC3 (Homo sapiens, UniProt O15379); settings: cited from earlier work
FKBP12 = FKBP12 (Homo sapiens, UniProt P62942); settings: mTOR inhibitor of FKBP12; cited from earlier work
Chain of FKBP12 (P62942 whole entry, species assumed): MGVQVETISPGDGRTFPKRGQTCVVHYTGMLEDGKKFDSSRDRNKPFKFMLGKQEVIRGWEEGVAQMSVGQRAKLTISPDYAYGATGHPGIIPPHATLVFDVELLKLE

PI3K/mTOR = settings: dual PI3K/mTOR inhibitor; cited from earlier work
[1] = tested on: Akt phosphorylation on S473; settings: cited from earlier work
[2] = tested on: Akt phosphorylation on T308; settings: cited from earlier work
Reh cells = settings: in Reh cells; cited from earlier work
MOLT-4 cells = settings: in MOLT-4 cells; cited from earlier work
mTOR = mTOR (Homo sapiens, UniProt P42345); settings: cited from earlier work
[3] = tested on: K-562, NALM-1, CCRF-CEM, MOLT-3 and -4; test: MTT assay, anti-proliferative effect, rest of the panel; assay type: cell-based; settings: Homo sapiens; the rest of the eight cell lines, 72-h exposure
Experimental: (§1) MTT assays were performed after 72 hours exposure. Protein levels were analyzed by Western Blot using commercial antibodies. RNA was extracted using the Qiagen RNAEasy and RT-PCR was performed using Fast SYBR Green on a StepOnePlus Real-Time PCR System. Combination effects were evaluated in four cell lines (HL60, U937, Jurkat and K562); compound (1-1) was administered with daunorubicin, azacytidine, dexamethasone, cytarabine or methotrexate. The 48 h Combination Index (CI) was determined by median effect plot analysis using CalcuSyn software expressed as the median and range of CI values among cell lines (Chou & Talalay analysis). CI<1 reflects synergy effects, CI=1 reflects additivity and CI>1 reflects antagonist effects.

BRD2 and BRD4 = BRD2 and BRD4 mRNA and protein in Jurkat cells; assay type: cell-based, human
c-MYC [4] = test: c-MYC mRNA (RT-PCR) and protein (Western Blot) in sensitive cell lines; assay type: cell-based, human
Experimental: as §1
(§2) Four established human cell lines derived from acute (HL60, U937), chronic (K562) myeloid leukemia, and acute lymphoblastic leukemia (Jurkat) were treated with increasing compound (1-1) doses. MTT assays were performed after 72 h exposure. GI50 and Emax values were calculated with the equation for sigmoidal dose response using Prism 5.00. […] Protein levels were analyzed by Western Blot using commercial antibodies. For cell cycle analysis and apoptosis induction, cells were stained with PI or Annexin V respectively, and analyzed using a FACScan flow cytometer. […] The Combination Index (CI) was determined by median effect plot analysis using CalcuSyn software. […]

U937 = test: MTT assay, anti-proliferative effect; assay type: cell-based; settings: Homo sapiens, U-937; U937, 72-h exposure; range given for HL60, U937 and Jurkat together
Experimental: as §1
as §2, with “5.00. Results are the mean±95% CI of at least 3 independent experiments performed in triplicate.” for “5.00.”, “cytometer. RT-PCR was performed using Fast SYBR Green Master Mix on a StepOnePlus Real-Time PCR System. […] Compound (1-1) combination studies were performed in cell lines exposed for 48 h to increasing doses of compound (1-1) alone or in combination several conventional anti-leukemic drugs, such as epigenetic modulators, steroids, m-TOR inhibitors and classical cytotoxic agents, and assessed using the Chou & Talalay method.” for “cytometer.”

HL60 = test: MTT assay, anti-proliferative effect; assay type: cell-based; settings: Homo sapiens, HL-60; HL60, 72-h exposure; range given for HL60, U937 and Jurkat together
Experimental: as §1
as §2, with “5.00. Results are the mean±95% CI of at least 3 independent experiments performed in triplicate.” for “5.00.”, “cytometer. RT-PCR was performed using Fast SYBR Green Master Mix on a StepOnePlus Real-Time PCR System. […] Compound (1-1) combination studies were performed in cell lines exposed for 48 h to increasing doses of compound (1-1) alone or in combination several conventional anti-leukemic drugs, such as epigenetic modulators, steroids, m-TOR inhibitors and classical cytotoxic agents, and assessed using the Chou & Talalay method.” for “cytometer.”

Jurkat = test: MTT assay, anti-proliferative effect; assay type: cell-based; settings: Homo sapiens, 72-h exposure, range given for HL60, U937 and Jurkat together
Experimental: as §1
as §2, with “5.00. Results are the mean±95% CI of at least 3 independent experiments performed in triplicate.” for “5.00.”, “cytometer. RT-PCR was performed using Fast SYBR Green Master Mix on a StepOnePlus Real-Time PCR System. […] Compound (1-1) combination studies were performed in cell lines exposed for 48 h to increasing doses of compound (1-1) alone or in combination several conventional anti-leukemic drugs, such as epigenetic modulators, steroids, m-TOR inhibitors and classical cytotoxic agents, and assessed using the Chou & Talalay method.” for “cytometer.”

[5] = tested on: HL60, U937, Jurkat and K562; test: Combination Index, Chou & Talalay median effect analysis; assay type: cell-based, human; settings: OTX015-sensitive and resistant leukemic cells lines
[6] = tested on: compound (1-1) sensitive cell lines (HL60, U937 and Jurkat); test: Cell cycle analysis and apoptosis induction; assay type: cell-based, human
Experimental: Four established human cell lines derived from acute (HL60, U937), chronic (K562) myeloid leukemia, and acute lymphoblastic leukemia (Jurkat) were treated with increasing compound (1-1) doses. MTT assays were performed after 72 h exposure. GI50 and Emax values were calculated with the equation for sigmoidal dose response using Prism 5.00. Results are the mean±95% CI of at least 3 independent experiments performed in triplicate. […] Protein levels were analyzed by Western Blot using commercial antibodies. For cell cycle analysis and apoptosis induction, cells were stained with PI or Annexin V respectively, and analyzed using a FACScan flow cytometer. RT-PCR was performed using Fast SYBR Green Master Mix on a StepOnePlus Real-Time PCR System. Cell cycle, apoptosis induction and qRT-PCR results are the mean±SD of at least 3 independent experiments, where *p<0.05, **p<0.001 and ***p<0.0001 versus control cells (0.1% DMSO), employing Anova then Dunnett's Multiple Comparison Test. Compound (1-1) combination studies were performed in cell lines exposed for 48 h to increasing doses of compound (1-1) alone or in combination several conventional anti-leukemic drugs, such as epigenetic modulators, steroids, m-TOR inhibitors and classical cytotoxic agents, and assessed using the Chou & Talalay method. For the sequential combination schemes, cell lines were exposed to azacytidine or panobinostat for 48 or 72 h, washed with drug-free medium and then treated with compound (1-1) for 24 or 48 h. The Combination Index (CI) was determined by median effect plot analysis using CalcuSyn software. CI<1 reflects synergy, CI=1 additivity and CI>1 antagonist effects. Results represent the median and range of 4 independent experiments performed in triplicate.

c-MYC [7] = test: c-MYC RNA and protein in resistant cell line K562; assay type: cell-based, human
Experimental: as §1, §2

PI3Kβ (p110β) = PI3Kβ (p110β) (Homo sapiens, UniProt P42338); settings: cited from earlier work
Chain of PI3Kβ (p110β) (P42338 whole entry, species assumed): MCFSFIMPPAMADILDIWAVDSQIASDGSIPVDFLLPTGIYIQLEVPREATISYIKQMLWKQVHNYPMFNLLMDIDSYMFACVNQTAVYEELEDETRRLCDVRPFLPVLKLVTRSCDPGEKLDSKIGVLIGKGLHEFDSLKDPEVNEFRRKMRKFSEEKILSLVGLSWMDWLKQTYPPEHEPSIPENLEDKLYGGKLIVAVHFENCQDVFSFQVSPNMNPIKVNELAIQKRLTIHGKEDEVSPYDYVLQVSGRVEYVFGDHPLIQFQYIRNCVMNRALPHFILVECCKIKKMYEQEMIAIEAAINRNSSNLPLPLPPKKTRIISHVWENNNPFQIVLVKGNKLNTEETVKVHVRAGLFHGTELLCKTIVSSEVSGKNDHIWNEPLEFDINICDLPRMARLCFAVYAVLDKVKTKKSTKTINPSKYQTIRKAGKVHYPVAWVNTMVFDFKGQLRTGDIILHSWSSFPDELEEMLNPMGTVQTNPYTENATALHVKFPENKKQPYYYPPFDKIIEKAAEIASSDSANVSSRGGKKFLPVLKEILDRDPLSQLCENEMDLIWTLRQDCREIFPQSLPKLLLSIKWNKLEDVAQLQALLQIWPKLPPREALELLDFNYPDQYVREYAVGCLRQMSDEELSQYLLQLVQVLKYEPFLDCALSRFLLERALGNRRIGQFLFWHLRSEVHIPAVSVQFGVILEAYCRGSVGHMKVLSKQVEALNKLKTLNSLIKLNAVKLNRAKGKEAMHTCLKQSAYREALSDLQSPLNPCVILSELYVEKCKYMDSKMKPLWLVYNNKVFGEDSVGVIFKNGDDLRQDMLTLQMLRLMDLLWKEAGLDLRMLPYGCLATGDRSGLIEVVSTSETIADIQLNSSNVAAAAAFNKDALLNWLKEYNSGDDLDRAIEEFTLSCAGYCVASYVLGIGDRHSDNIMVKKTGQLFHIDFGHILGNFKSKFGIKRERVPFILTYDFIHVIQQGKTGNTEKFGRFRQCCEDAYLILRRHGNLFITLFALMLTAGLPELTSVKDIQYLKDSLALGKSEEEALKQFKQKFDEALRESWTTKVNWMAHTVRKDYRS
Chain of PI3Kβ (p110β) (P27986 whole entry partner, species assumed): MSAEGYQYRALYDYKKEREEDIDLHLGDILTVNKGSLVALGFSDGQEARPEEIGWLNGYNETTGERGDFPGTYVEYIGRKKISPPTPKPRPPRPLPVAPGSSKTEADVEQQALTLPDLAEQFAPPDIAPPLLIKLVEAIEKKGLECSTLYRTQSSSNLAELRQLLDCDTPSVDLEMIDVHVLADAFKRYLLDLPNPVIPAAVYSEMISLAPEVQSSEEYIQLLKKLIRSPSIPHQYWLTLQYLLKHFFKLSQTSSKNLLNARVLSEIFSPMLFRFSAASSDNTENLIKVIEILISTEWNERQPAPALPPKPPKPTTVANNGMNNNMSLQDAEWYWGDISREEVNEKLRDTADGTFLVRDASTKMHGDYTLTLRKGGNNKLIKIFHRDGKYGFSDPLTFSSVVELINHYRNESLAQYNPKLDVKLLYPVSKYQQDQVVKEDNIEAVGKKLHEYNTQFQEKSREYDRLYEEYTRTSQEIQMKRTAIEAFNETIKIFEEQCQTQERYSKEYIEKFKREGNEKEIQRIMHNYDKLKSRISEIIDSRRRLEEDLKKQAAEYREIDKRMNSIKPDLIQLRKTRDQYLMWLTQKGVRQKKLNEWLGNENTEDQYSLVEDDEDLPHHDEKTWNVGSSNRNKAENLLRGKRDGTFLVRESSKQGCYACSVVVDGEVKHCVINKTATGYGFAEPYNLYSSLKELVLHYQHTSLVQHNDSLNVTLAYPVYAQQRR

PI3Kγ (p110γ) = PI3Kγ (p110γ) (Homo sapiens, UniProt P48736); settings: cited from earlier work
Chain of PI3Kγ (p110γ) (P48736 whole entry, species assumed): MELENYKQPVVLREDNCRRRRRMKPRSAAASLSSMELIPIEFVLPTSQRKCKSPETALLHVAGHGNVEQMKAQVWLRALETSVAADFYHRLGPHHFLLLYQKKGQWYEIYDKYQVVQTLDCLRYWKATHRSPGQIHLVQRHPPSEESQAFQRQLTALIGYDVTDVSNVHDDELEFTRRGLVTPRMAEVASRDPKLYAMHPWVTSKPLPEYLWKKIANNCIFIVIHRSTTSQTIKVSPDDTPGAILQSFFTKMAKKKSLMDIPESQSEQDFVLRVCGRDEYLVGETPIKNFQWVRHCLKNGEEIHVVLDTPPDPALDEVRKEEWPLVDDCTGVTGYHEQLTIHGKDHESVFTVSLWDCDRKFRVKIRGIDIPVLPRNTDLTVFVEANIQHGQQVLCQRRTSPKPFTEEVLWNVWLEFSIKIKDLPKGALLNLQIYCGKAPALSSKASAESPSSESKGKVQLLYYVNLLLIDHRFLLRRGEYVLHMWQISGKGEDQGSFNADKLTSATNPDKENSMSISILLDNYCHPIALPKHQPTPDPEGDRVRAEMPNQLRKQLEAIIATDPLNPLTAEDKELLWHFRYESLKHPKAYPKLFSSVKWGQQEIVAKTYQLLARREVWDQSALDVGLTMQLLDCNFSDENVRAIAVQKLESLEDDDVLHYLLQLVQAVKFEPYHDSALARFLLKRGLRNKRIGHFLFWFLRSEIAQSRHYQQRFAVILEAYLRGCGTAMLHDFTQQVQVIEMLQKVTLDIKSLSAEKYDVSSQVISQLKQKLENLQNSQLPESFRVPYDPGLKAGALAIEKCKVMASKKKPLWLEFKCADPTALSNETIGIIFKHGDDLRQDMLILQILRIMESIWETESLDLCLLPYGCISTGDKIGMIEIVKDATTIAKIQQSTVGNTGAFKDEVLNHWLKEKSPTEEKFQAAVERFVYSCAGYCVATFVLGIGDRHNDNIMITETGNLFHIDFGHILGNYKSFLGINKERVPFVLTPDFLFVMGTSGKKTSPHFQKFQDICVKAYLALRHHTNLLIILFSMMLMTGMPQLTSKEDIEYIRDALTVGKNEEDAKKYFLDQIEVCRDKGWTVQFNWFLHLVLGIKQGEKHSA

[8] = sensitive leukemic cells, 48 h exposure to 500 nM (Example 8)

Chain of HDAC3 (O15379 whole entry, species assumed): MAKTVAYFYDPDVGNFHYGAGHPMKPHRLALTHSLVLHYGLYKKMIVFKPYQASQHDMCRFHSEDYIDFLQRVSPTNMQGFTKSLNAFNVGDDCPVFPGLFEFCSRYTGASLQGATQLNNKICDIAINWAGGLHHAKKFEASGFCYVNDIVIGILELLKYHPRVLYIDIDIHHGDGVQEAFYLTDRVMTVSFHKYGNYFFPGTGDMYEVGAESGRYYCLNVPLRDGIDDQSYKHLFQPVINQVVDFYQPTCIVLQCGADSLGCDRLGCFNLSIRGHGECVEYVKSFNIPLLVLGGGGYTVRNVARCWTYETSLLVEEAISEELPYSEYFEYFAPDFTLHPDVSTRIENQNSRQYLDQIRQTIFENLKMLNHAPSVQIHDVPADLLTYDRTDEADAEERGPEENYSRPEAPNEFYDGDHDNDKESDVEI
Chain of HDAC3 (Q9Y618 395-489 partner limits assumed, species assumed): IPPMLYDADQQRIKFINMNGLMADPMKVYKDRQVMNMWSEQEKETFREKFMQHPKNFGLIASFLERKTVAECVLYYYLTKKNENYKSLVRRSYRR

CC(C)[C@H](C(=O)Nc1ccc(C(=O)NO)cc1)c1ccccc1 [AR-42, (S)-N-hydroxy-4-(3-methyl-2-phenylbutanamido)benzamide]
pIC50 (HDAC): 7.52

Cc1cc(Cl)ccc1OCCCC(=O)NO [Droxinostat, 4-(4-Chloro-2-methylphenoxy)-N-hydroxybutanamide]
pIC50 (HDAC3): 4.77

CO[C@H]1C[C@@H]2CC[C@@H](C)[C@@](O)(O2)C(=O)C(=O)N2CCCC[C@H]2C(=O)O[C@H]([C@H](C)C[C@@H]2CC[C@@H](OCCO)[C@H](OC)C2)CC(=O)[C@H](C)/C=C(\C)[C@@H](O)[C@@H](OC)C(=O)[C@H](C)C[C@H](C)/C=C/C=C/C=C/1C [Everolimus]
pIC50 (FKBP12): 8.62 to 8.80

CCN(CC)Cc1ccc2cc(COC(=O)Nc3ccc(C(=O)NO)cc3)ccc2c1 [ITF2357]
pIC50 (HDAC): 7.80 to 8.12

O=C(/C=C/c1ccc(CN(CCO)CCc2c[nH]c3ccccc23)cc1)NO [LAQ824]
pIC50 (HDAC): 7.49

CN(C)c1ccc(C(=O)NCCCCCCC(=O)NO)cc1 [M344]
pIC50 (HDAC): 7.00

Cn1c(/C=C/C(=O)NO)ccc1/C=C/C(=O)c1cccc(F)c1 [MC1568]
pIC50 (HDAC): 6.66

COc1ccc(-c2ccc3ncc4c(c3c2)n(-c2ccc(N3CCNCC3)c(C(F)(F)F)c2)c(=O)n4C)cn1 [NVP-BGT226]
pIC50 (PI3K/mTOR): 9.00

COc1ccc(-c2cc3c(C)nc(N)nc3n([C@H]3CC[C@H](OCCO)CC3)c2=O)cn1 [PF-04691502]
pIC50 [1]: 8.42 | pIC50 [2]: 8.12

Cc1[nH]c2ccccc2c1CCNCc1ccc(/C=C/C(=O)NO)cc1 [Panobinostat]
pIC50 (Reh cells): 7.70 | pIC50 (MOLT-4 cells): 8.30

CCCCc1nc2cc(/C=C/C(=O)NO)ccc2n1CCN(CC)CC [SB939, (E)-3-(2-butyl-1-(2-(diethylamino)ethyl)-1H-benzo[d]imidazol-5-yl)-N-hydioxyacrylamide]
pIC50 (HDAC): 6.85 to 7.40

CO[C@H]1C[C@@H]2CC[C@@H](C)[C@@](O)(O2)C(=O)C(=O)N2CCCC[C@H]2C(=O)O[C@H]([C@H](C)C[C@@H]2CC[C@@H](OC(=O)C(C)(CO)CO)[C@H](OC)C2)CC(=O)[C@H](C)/C=C(\C)[C@@H](O)[C@@H](OC)C(=O)[C@H](C)C[C@H](C)/C=C/C=C/C=C/1C [Temsirolimus]
pIC50 (mTOR): 8.75

CCCC(CCC)C(=O)O [Valproic acid sodium salt]
pIC50 (HDAC): 3.40

Cc1sc2c(c1C)C(c1ccc(Cl)cc1)=N[C@@H](CC(=O)Nc1ccc(O)cc1)c1nnc(C)n1-2 [compound (1-1), 2-[(6S)-4-(4-chlorophenyl)-2,3,9-trimethyl-6H-thienol[3,2-f]-[1,2,4]triazolo[4,3-a][1,4]diazepin-6-yl]-N-(4-hydroxyphenyl)acetamide dihydrate]
GI50 [3]: ≥ 1000 nM | BRD2 and BRD4 protein levels (BRD2 and BRD4): without modifying protein levels | mRNA levels of BRD2 and BRD4 (BRD2 and BRD4): up-regulation | c-MYC mRNA and protein levels (c-MYC [4]; sensitive cell lines (Example 8)): rapid and sustained downregulation | cMYC mRNA and protein levels (c-MYC [4]; sensitive cell lines, 500 nM, after 6-h and up to 72-h treatment): down-regulated | GI50 (U937): 230 to 384 nM | GI50 (HL60): 230 to 384 nM | GI50 (Jurkat): 230 to 384 nM | effect in concomitant combination with demethylating agents, HDAC and mTOR inhibitors, glucocorticoids, and conventional cytotoxic drugs [5]: strong synergistic effects | induction of apoptosis ([6]; sensitive cell lines (Example 7)): without induction of apoptosis | cell cycle effect ([6]; sensitive cell lines, time-dependent (Example 7)): cell cycle arrest in G1 | cell cycle effect [6, 8]: increased proportion of cells in cell cycle phase G0/G1 | induction of apoptosis [6, 8]: slight induction of apoptosis | levels of c-MYC RNA (c-MYC [7]; K562, after 4-h and 24-h exposure): decreased levels | cMYC protein levels (c-MYC [7]; K562, even after 72 h of treatment): constant

(3S,6S,9S,15aR)-9-((R)-sec-butyl)-6-((1-methoxy-1H-indol-2-yl)methyl)-3-(6-oxooetyl)decahydro-1H-pyrido[1,2-a][1,4,7,10]tetraazacyclododecine-1,4,7,10(12H)-tetraone [Apicidin]
pIC50 (HDAC): 9.15

GSK2126458
pKi (PI3Kβ (p110β)): 9.89 | pKi (PI3Kγ (p110γ)): 10.62
